The target of this test is T1, human TLR7 (wild type sequence) (Homo sapiens, UniProt Q9NYK1).
T1 construct: expressed in transfected cells; host or cells: HEK293
T1 sequence (Q9NYK1 27-1049): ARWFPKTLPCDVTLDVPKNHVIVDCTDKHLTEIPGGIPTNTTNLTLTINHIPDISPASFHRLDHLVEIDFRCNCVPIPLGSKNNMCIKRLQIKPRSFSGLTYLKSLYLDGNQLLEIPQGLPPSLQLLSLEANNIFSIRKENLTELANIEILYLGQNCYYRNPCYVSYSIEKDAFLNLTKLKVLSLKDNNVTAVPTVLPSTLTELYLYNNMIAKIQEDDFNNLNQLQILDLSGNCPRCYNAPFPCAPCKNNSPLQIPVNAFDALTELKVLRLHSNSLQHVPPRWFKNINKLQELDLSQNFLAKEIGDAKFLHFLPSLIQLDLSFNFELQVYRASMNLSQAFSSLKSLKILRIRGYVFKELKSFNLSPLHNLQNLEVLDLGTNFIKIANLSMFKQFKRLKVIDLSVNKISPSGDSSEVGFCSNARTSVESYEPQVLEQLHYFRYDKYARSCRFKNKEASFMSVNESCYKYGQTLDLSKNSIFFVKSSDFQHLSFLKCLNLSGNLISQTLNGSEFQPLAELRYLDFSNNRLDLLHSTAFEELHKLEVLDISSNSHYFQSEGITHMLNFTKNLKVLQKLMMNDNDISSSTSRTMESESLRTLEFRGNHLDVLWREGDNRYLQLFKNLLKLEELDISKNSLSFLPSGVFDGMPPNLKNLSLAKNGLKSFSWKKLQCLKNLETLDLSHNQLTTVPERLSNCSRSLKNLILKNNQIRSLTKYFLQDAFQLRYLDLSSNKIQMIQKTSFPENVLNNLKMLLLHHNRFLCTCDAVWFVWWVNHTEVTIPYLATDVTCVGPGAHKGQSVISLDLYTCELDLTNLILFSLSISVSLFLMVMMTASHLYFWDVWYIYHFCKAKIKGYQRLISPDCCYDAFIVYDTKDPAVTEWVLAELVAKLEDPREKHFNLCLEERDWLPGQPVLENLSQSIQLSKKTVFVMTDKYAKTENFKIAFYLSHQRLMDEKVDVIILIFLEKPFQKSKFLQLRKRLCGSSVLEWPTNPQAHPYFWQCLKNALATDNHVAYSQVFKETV
The experiment in a line: TLR7 cellular NFκB-luc reporter assay, wild type TLR7. Format: cell-based. Details: unit not given here. Particulars: lowest effective concentration, wild type TLR7 (compounds 1-73). An outline of the steps:
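Luciferase readout followed 6 h of compound exposure at 37 °C, 5% CO2, with quadruplicate dose-response curves. The cells were HEK293 carrying an NFκB-luc reporter and either wild-type TLR7/TLR8 or a mutant with a second leucine-rich repeat deletion, expressed by 48 h transient transfection. LEC is the lowest concentration giving at least twofold over the assay SD.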
Background: A reporter such as luciferase makes a cellular process visible.

Bounds are passed on as bounds.

`CCCCNc1nc(N)ncc1OC` [Compound 4] returned a TLR7-wt_LEC of 6.71. `CCCCNc1nc(N)ncc1OCC(C)C` [Compound 31] returned a TLR7-wt_LEC of more than 24.59.

`CCCCCOc1cnc(N)nc1NCCCC` [Compound 32] came in with a TLR7-wt_LEC of 10.60. `CCCCCNc1nc(N)ncc1Oc1ccccc1OC` [Compound 38] had a TLR7-wt_LEC of 21.97. In the case of `CCCCCNc1nc(N)ncc1OC` [Compound 56], the TLR7-wt_LEC came to 12.02. As for `CCCCNc1nc(N)ncc1OCc1ccc(-c2ccccc2)cc1` [Compound 58], the TLR7-wt_LEC stood at 6.48.

`CCCCNc1nc(N)ncc1OCC` [Compound 60] registered a TLR7-wt_LEC of 5.58. The same measure for `CCCCCNc1nc(N)ncc1OCC` [Compound 63]: 2.78; for `CCCCNc1nc(N)ncc1Oc1ccccc1OC` [Compound 64]: 8.47; for `CCCCCCNc1nc(N)ncc1OCC` [Compound 70]: 15.84.
